Experimental data: patent publication US20130150399A1, “INHIBITORS OF THE UNFOLDED PROTEIN RESPONSE AND METHODS FOR THEIR USE” (The Board of Trustees of the Leland Stanford Junior …, priority 2006, published 2013)

Assays:
phospho-IRE1α = experiment: Western immunoblot of phospho-IRE1α (IRE1α kinase), HT1080 cells; assay type: cell-based, human; conditions: preincubated 16 hours, 2.5 μM; Tm 5 μg/ml
Experimental: (§1) Cells (2×10^6) were cultured in 10-cm dishes, collected using a cell scraper at 4° C., and lysed by addition of 150 μl cell lysis buffer [50 mM Tris pH 7.4, 150 mM NaCl, 10% glycerol, 0.5% Triton X-100. 0.5% NP-40, 2 mM Na3VO4, 20 mM beta-glycerophosphate, 10 mM NaF, 1 mM DTT, 1 mM PMSF). Lysates were centrifuged for 5 min at 10,000×g, and proteins (˜40 μg) were resolved by SDS-PAGE followed by semi-dry transfer to nitrocellulose membranes. Membranes were blocked in TBS-5% milk supplemented with 0.1% Tween-20. The blots were then probed overnight with relevant antibodies, washed, and incubated for 2 hours with species-specific secondary antibodies conjugated to horseradish peroxidase. After washing in block solution, immunoreactive material was detected by enhanced chemiluminescence (SuperSignal West Dura Extended, Pierce, Inc., Rockville, Ill.).
HT1080 cells were exposed to DMSO vehicle (lane 1), irestatin 9389 (2.5 μM; lane 2) for 16 hours or Tm (5 μg/ml; lane 3) for 8 hours. Following treatments, cells were harvested, lysed, and analyzed by immunoblotting using anti-Grp78 antibody (top) or anti-actin (bottom) as a loading control. […] Cell lysates were analyzed by Western immunoblotting using anti-IRE1α (bottom) or anti-phospho-IRE1α antibodies (top). […] Lysates were analyzed by Western blot using antisera specific for phospho-JNK1 (top) or total JNK1 (bottom). […]

HIF-1α = experiment: Western immunoblot of HIF-1α, HT1080 cells under hypoxia; assay type: cell-based, human; conditions: 2 μM; 24 hours of hypoxia
Experimental: as §1
A. XBP-luciferase reporter construct. […] After 24 hours, luciferase activity was analyzed in an automated plate reader. For each cell line, values are expressed as the percent inhibition of the median for Tm/Tg-treated wells, corrected for background. […] Values are expressed as the fold increases over uninduced levels. […] Cells were harvested, lysed, and analyzed by immunoblotting with antisera specific for HIF-1α (top), XBP-1s (middle) or actin (bottom). […] Total RNA was analyzed by Northern blotting using radiolabeled probes specific for P58^IPK or DER-1. […]

Cc1csc(NC(=O)CSc2nc3c(c(C(F)(F)F)c2C#N)CCC3)n1 [Compound 9389]
levels of phospho-IRE1α after addition of Tm (phospho-IRE1α): rapid increase in levels of phospho-IRE1α
expression of HIF-1α (HIF-1α): not affected
